The text below walks through data of patent US4145554A, “3-Nitropyrazole derivatives” (Eli Lilly and Company, priority 1977, dated 1979).

In brackets after ≈: the same amount, converted by molar mass. Where two headings read alike, the source gives them in different places. Some results are limits rather than exact numbers.

By MIC is commonly meant the lowest concentration that inhibits growth of the organism. By ED50 is commonly meant the dose at which the effect has come halfway, by size or by number of responders. A low value points to greater potency.

The subject of experiment [1] is H. meleagridis. In words: Blackhead in poultry, chicks. Type of experiment: in vivo. How it is done:
(§1) One- to three-week-old chicks and turkey poults were obtained from homogeneous source flocks and allocated into treatment groups. Some groups were held as infected, untreated controls, and other groups were treated with 3-nitropyrazoles by administering the compounds in the birds' feed. Various concentrations of the pyrazoles were administered to determine the least concentration which protected the birds. A few days after the administration of medicated feed began, all of the birds were challenged by rectally administering a suspension of at least 5,000 H. meleagridis protozoa per chick. The challenge organisms had been originally obtained from infected chickens, and were grown in vitro to provide a supply of organisms for testing.
(§2) The birds were held for about seven days after the challenge was administered, during which time the administration of pyrazole-medicated feed was continued. Then all of the chicks, including the untreated, infected controls, were sacrificed and necropsied. The cecum and the liver of each bird were examined for characteristic H. meleagridis lesions.
(§3) For each compound, the lowest feed concentration which gave an active response is indicated. While feed consumption data were not taken during the tests, the birds ate at such a rate that a feed concentration of 0.02 percent is equivalent to a treatment rate of about 10 mg./kg./day.

In experiment [2] the test system is H. meleagridis. The experiment can be described thus: Blackhead in poultry, turkeys. Type of experiment: in vivo. How it is done: as §1, §2, §3
A further experiment concerns Mycoplasma hyorhinis. In words: in vitro tube dilution test (MIC). Type of experiment: cell-based. The text has this: (§4) Our compound, 1-(2-hydroxyethyl)-3-nitro-4-pyrazolecarboxamide, has been extensively tested in vitro to determine the range of microorganisms against which it is active. The table of data below reports the minimum inhibitory concentration (MIC) at which the compound is effective in controlling a variety of microorganisms in a standard tube dilution test system. The MIC is reported as micrograms of compound per milliliter.
(§5) The other preferred compounds of our invention have also been thoroughly tested in the in vitro tube dilution test.

For the next experiment, the system named is Pseudomonas sp. In words: in vitro tube dilution test (MIC). The class given is cell-based.
From the text: as §4, §5

In another experiment the test system is Pasteurella multocida. The experiment can be described thus: in vitro tube dilution test (MIC). The class given is cell-based. Conditions: tube dilution, read-out: MIC. Summed up: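 Standard tube dilution test; MIC is the lowest compound concentration controlling growth, given in μg/mL.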
For experiment [3], the system named is Mycoplasma gallisepticum 38502. The experiment can be described thus: in vitro tube dilution test (MIC). The class given is cell-based. Conditions: Mycoplasmoides gallisepticum; Mycoplasma gallisepticum 38502, tube dilution.
From the text: as §5

Experiment [4] has as its system Staphylococcus aureus 3055. In words: in vitro tube dilution test (MIC). The class given is cell-based. Conditions: Staphylococcus aureus 3055, tube dilution.
From the text: as §5

Another experiment concerns Salmonella dublin. The experiment can be described thus: in vitro tube dilution test (MIC). The class given is cell-based. Conditions: Salmonella enterica; Salmonella dublin, tube dilution; read-out: MIC.
In experiment [5] the test system is Staphylococcus aureus sp. 1130. The experiment can be described thus: in vitro tube dilution test (MIC). The class given is cell-based. Conditions: read-out: MIC.
In another experiment the test system is Vibrio coli 3811. The experiment can be described thus: in vitro tube dilution test (MIC). The class given is cell-based. Conditions: Campylobacter coli; Vibrio coli 3811, tube dilution; read-out: MIC.
A further experiment concerns Erwinia amylovora. In words: Fire blight of pear, in vivo greenhouse test. As to the method:
An in vivo test was conducted against the fire blight organism, Erwinia amylovora. Plants infected with E. amylovora were sprayed with aqueous dispersions containing 100 ppm. and 500 ppm. of the test compounds. […] The compounds are identified below by their compound numbers in the above listing.

In the next experiment the test system is Streptococcus pyogenes. In words: Tests in mice, Streptococcus pyogenes infection. Type of experiment: in vivo. Conditions: S. pyogenes, two subcutaneous doses of 83 mg./kg., 1 and 5 hours. As to the method:
(§6) Groups of laboratory mice were inoculatd with E. coli or with Streptococcus pyogenes. The 3-nitropyrazoles were administered in two different modes to the infected mice. In one group of tests, the compound was administered in two subcutaneous doses of 83 mg./kg. each, given 1 and 5 hours after the mice were inoculated with the organism. The mice were observed, and the results reported below as the number of days the treated mice survived the challenge.
(§7) In the other group of tests, the dose of each compound which allowed 50 percent of the treated mice to survive the challenge was determined. Again, the compound was administered in subcutane divided doses, 1 and 5 hours post-inoculation.

The next experiment relates to E. coli. In words: Tests in mice, E. coli infection. The class given is in vivo. Conditions: for ED50: Escherichia coli, sc, subcutaneous, 1 and 5 hours post-inoculation; for Days Survived: two subcutaneous doses of 83 mg./kg., 1 and 5 hours. How it is done: as §6, §7
Another experiment relates to Salmonella typhimurium. The experiment can be described thus: Salmonellosis in chickens, single injection to day-old chicks. Type of experiment: in vivo. Conditions: Salmonella enterica, TYPHIMURIUM, 168 h; single injection of 60 mg./kg.; seven days; read-out: Survival (converted). Put shortly: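 Five day-old chicks per group received one injection of compound at 60 mg./kg., then were challenged next day by subcutaneous S. typhimurium at a dose lethal to most or all untreated controls. Read-out is survivor count, pooled over repeat groups, with untreated challenged controls run in each batch.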

The next experiment deals with S. typhimurium. The experiment can be described thus: Salmonella typhimurium in chickens, medicated feed. The class given is in vivo, chicks. Conditions: Test C, 200 gm./ton feed.
In a further experiment the test system is avian E. coli. The experiment can be described thus: Colibacillosis in chickens, medicated feed. Type of experiment: in vivo. Conditions: 300 gm./ton feed; about 5 weeks old; 10^-2 dilution challenge; first test.
Experiment [6] concerns Salmonella heidelburg 1593. In words: in vitro tube dilution test (MIC). The class given is cell-based. Conditions: Salmonella heidelburg 1593, tube dilution.
From the text: as §4, §5

A further experiment concerns Salmonella pullorum Ill. In words: in vitro tube dilution test (MIC). The class given is cell-based. Conditions: Salmonella enterica.
From the text: as §4, §5

In experiment [7] the test system is Salmonella typhimurium 1335. In words: in vitro tube dilution test (MIC). The class given is cell-based. Conditions: Salmonella enterica; Salmonella typhimurium 1335, tube dilution.
From the text: as §4, §5

The test system of another experiment is Escherichia coli. In words: in vitro tube dilution test (MIC). Type of experiment: cell-based. Conditions: tube dilution, read-out: MIC. Put shortly: (§8)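 Standard tube dilution test; MIC reported as micrograms of compound per milliliter.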
The subject of the next experiment is Mycoplasma synoviae. In words: in vitro tube dilution test (MIC). The class given is cell-based. Conditions: Mycoplasmopsis synoviae, footnote 1: M. synoviae. Put shortly: as §8
A further experiment relates to Streptococcus sp. 80. In words: in vitro tube dilution test (MIC). The class given is cell-based. Conditions: Streptococcus sp. 80, tube dilution; read-out: MIC. The text has this: Other compounds of our invention have also been tested in the tube dilution test and shown to have in vitro activity against a number of microorganisms. The table below reports tests of a number of exemplary compounds against exemplary microorganisms. The compounds are identified by their numbers in the listing above. The data are reported as the MIC in micrograms per milliliter against the named exemplary microorganisms.

For the next experiment, the system named is E. amylovora. In words: Fire blight of apple, induced infection of McIntosh apple seedlings. The class given is in vivo. Conditions: 6 days, scale 1 (symptoms in main stem) to 4 (complete control). The text has this:
A typical test of one of our compounds against an induced E. amylovora infection of McIntosh apple seedlings will be reported. The compound, [2-(4-carbamoyl-3-nitropyrazol-1-yl)ethyl] phenyl carbonate, was sprayed on the seedlings as an aqueous dispersion at the concentrations shown below. Four replicate trees were used per treatment. After the spray had dried, each tree was challenged by punching a hole through the midvein at the tip of one leaf per plant, and placing a drop of an E. amylovora culture in the hole.
After 6 days, the trees were observed, and the control of the infection was rated on the following scale.
1 = disease symptoms in main stem
2 = disease symptoms in petiole
3 = disease symptoms in the leaf only
4 = complete control of disease
The results are shown below as the mean disease control rating.

In experiment [8] the test system is mycoplasma which causes aster yellows. The experiment can be described thus: Aster yellows disease test. The class given is in vivo, aster plants. Conditions: 20 days. The text has this:
The following data report a test of an exemplary compound against aster yellows disease. The compound, [2-(4-carbamoyl-3-nitropyrazol-1-yl)ethyl] phenyl carbonate, was applied to aster plants as an aqueous dispersion at concentrations shown below. Two plants were sprayed with each concentration. Each pair of plants was placed in a wire mesh cage, and four leafhoppers infected with the mycoplasma which causes aster yellows were placed in each cage. After 20 days, the plants were observed and disease control was rated as the percent of the plants' surface affected by the disease.

Setting [9] is: Staphylococcus aureus, SP.1130, Staphyloccocus 1130, tube dilution.

In the case of `NC(=O)c1cn(CCc2ccccc2)nc1[N+](=O)[O-]` [Compound 17, 1-phenethyl-3-nitro-4-pyrazolecarboxamide], the “Active Level (lowest feed concentration which gave an active response)” value (from here on “Active Level”) with H. meleagridis [1] is on record as “.0067%”; with H. meleagridis [2] it was “.02%”.

In the case of `CCOCCn1cc(C(N)=O)c([N+](=O)[O-])n1` [Compound 34, 1-(2-ethoxyethyl)-3-nitro-4-pyrazolecarboxamide], the MIC against Mycoplasma hyorhinis worked out at 50 µg/mL (≈ 219 µM); in the experiment with Pseudomonas sp., 50 µg/mL (≈ 219 µM); in the experiment with Pasteurella multocida, 25 µg/mL (≈ 110 µM); in experiment [3], 50 µg/mL (≈ 219 µM); in experiment [4] it was 100 µg/mL (≈ 438 µM); in the experiment on Salmonella dublin it was 25 µg/mL (≈ 110 µM). The results for the MIC (in experiment [5] (setting [9]); in the experiment with Vibrio coli 3811) were 6.25 µg/mL (≈ 27.4 µM) and 50 µg/mL (≈ 219 µM), respectively. Moreover, the “Percent Control of fire blight” value came to 33% in the experiment with Erwinia amylovora (100 ppm.) and 66% in the experiment with Erwinia amylovora (500 ppm.). Also, the figures for the “Days Survived” value in the experiment with Streptococcus pyogenes and in the experiment on E. coli were 5.0 days and 7.0 days, respectively. The same molecule returned a 50% effective dose (ED50) in the experiment on E. coli greater than 41 mg/kg. In addition, in the experiment with H. meleagridis [2], the “Active Level” value is listed as “.02%”. In addition, in the experiment on Salmonella typhimurium, the responders at 60 mg/kg was 40%. Besides, the Survival with S. typhimurium was 25/48. The “Avg. Wt.” value with S. typhimurium (surviving chicks) was 62 gm. In the experiment on avian E. coli, the “E. coli Lesions” value is 11/30. Further, the Mortality with avian E. coli is reported as 0/30. The Wt. in the experiment on avian E. coli is 1136 gm.

Consider `CNC(=O)c1cn(CCO)nc1[N+](=O)[O-]` [Compound 58, 1-(2-hydroxyethyl)-N-methyl-3-nitro-4-pyrazolecarboxamide], for which the minimal inhibitory concentration (MIC) in the experiment on Pseudomonas sp. is 25 µg/mL (≈ 117 µM); in experiment [6], 12.5 µg/mL (≈ 58.4 µM); with Salmonella pullorum Ill., 3.12 µg/mL (≈ 14.6 µM); in experiment [7], 12.5 µg/mL (≈ 58.4 µM); in the experiment with Pasteurella multocida it was 0.78 µg/mL (≈ 3.64 µM); in experiment [3], 6.25 µg/mL (≈ 29.2 µM). The minimum inhibitory concentration (MIC) in [4] is 10 µg/mL (≈ 46.7 µM); with Salmonella dublin it was 12.5 µg/mL (≈ 58.4 µM); in experiment [5] (setting [9]), 12.5 µg/mL (≈ 58.4 µM); in the experiment on Vibrio coli 3811, 25 µg/mL (≈ 117 µM). For the same molecule, the “Days Survived” value was 1.8 days with Streptococcus pyogenes and 7.0 days in the experiment on E. coli. Further, it took a dose of 40 mg/kg to reach the 50% effect level with E. coli (ED50). For the same molecule, the responders at 60 mg/kg with Salmonella typhimurium was 90%.

For the molecule `COC(=O)c1cn(CCO)nc1[N+](=O)[O-]` [Compound 71, methyl 1-(2-hydroxyethyl)-3-nitro-4-pyrazolecarboxylate], the MIC in the experiment with Escherichia coli was greater than 50 µg/mL; with Mycoplasma synoviae, 0.39 µg/mL (≈ 1.81 µM); in the experiment on Pasteurella multocida it was greater than 50 µg/mL; with Salmonella dublin it was greater than 50 µg/mL; in experiment [5] (Staphylococcus aureus sp. 1130, tube dilution) it was greater than 50 µg/mL; with Vibrio coli 3811, greater than 50 µg/mL. In addition, the MIC in the experiment on Streptococcus sp. 80 is greater than 50 µg/mL.

For the molecule `NC(=O)c1cn(CCOC(=O)Oc2ccccc2)nc1[N+](=O)[O-]` [Compound 77, [2-(4-carbamoyl-3-nitropyrazol-1-yl)ethyl] phenyl carbonate], the “mean disease control rating” value in the experiment with E. amylovora (200 ppm.) worked out at 2.5; with E. amylovora (400 ppm.), 3.5; with E. amylovora (600 ppm.) it was 3.0; with E. amylovora (800 ppm.) it was 3.4; with E. amylovora (1000 ppm.) it was 3.5; with E. amylovora (1200 ppm.), 3.5. Moreover, the “Percent Infection (percent of plants' surface affected)” value in experiment [8] (Concentration 200 (unit not given)) is on record as 0%; in experiment [8] (Concentration 400 (unit not given)) it was 25%; in experiment [8] (Concentration 800 (unit not given)), 0%. In the experiment on H. meleagridis [1], the “Active Level” value was “.02%”. In the experiment on Salmonella typhimurium, the responders at 60 mg/kg is 80%.
